Laboratory results from patent US20240390487A1, “TLR AGONISTS FOR REDUCING ACTIVATION-INDUCED PD-1 EXPRESSION ON T CELLS AND METHODS OF USE” (WISCONSIN ALUMNI RESEARCH FOUNDATION, priority 2016, published 2024).
“Also recorded” adds a separate entry of the source.

Tests used:
[1] = system: CD8+ OT-1 T cells; settings: for Eomesodermin (EOMES gene) expression / expression of genes associated with T-cell regulation (including PD-1 and IL-10): 24 to 72 hours, versus peptide alone
Description: CD8+ OT-1 T cells were then purified and evaluated for gene expression changes by RNA sequencing (RNA-seq).
RNA preparation and sequencing: Cells were stimulated in vitro as above, and at the times indicated T cells were isolated via immunomagnetic negative selection (StemCell, Vancouver, Canada 19853), RNA was collected as per the manufacturers instruction (Direct-zol RNA MiniPrep Plus w/TRI Reagent, Zymo Research), treated with DNAse (TURBO DNA-free Kit, Invitrogen), and stored at −80° C. until analysis at the UW-Madison Biotechnology Center. Total RNA was verified for purity and integrity via a NanoDrop2000 Spectrophotometer and Agilent 2100 BioAnalyzer, respectively. Samples that met the Illumina sample input guidelines were prepared using the Illumina® TruSeq® Stranded mRNA Sample Preparation kits (Illumina Inc., San Diego, California, USA). For each library preparation, mRNA was purified from 1000 ng total RNA using poly-T oligo-attached magnetic beads. Subsequently, each poly-A enriched sample was fragmented using divalent cations under elevated temperature. The fragmented RNA was synthesized into double-stranded cDNA using SuperScript II Reverse Transcriptase (Invitrogen, Carlsbad, California, USA) and random primers for first strand cDNA synthesis followed by second strand synthesis using DNA Polymerase I and RNAse H for removal of mRNA. Double-stranded cDNA was purified by paramagnetic beads (Agencourt AMPure XP beads, Beckman Coulter). The cDNA products were incubated with Klenow DNA Polymerase and DNA fragments, ligated to Illumina adapters, and purified by paramagnetic beads. Adapter ligated DNA was amplified in a Linker Mediated PCR reaction (LM-PCR) for 11 cycles using Phusion™ DNA Polymerase and Illumina's PE genomic DNA primer set and then purified by paramagnetic beads. Quality and quantity of the finished libraries were assessed using an Agilent DNA1000 chip (Agilent Technologies. Inc., Santa Clara, CA, USA) and Qubit® dsDNA HS Assay Kit (Invitrogen, Carlsbad, California, USA), respectively. Libraries were standardized to 2 μM. Cluster generation was performed using standard Cluster Kit (v3) and the Illumina Cluster Station. Single 100 bp sequencing was performed, using standard SBS chemistry (v4) on an Illumina HiSeq2500 sequencer. Images were analyzed using the standard Illumina Pipeline, version 1.8.2.
RNA sequencing data analysis: Illumina sequencing reads were adapter and quality trimmed using the Skewer trimming program. Quality reads were subsequently aligned to the annotated reference genome using the STAR aligner (43). Quantification of expression for each gene was calculated by RSEM (44), the expected read counts from RSEM were filtered for low/empty values and used for differential gene expression analysis using DESeq2 (45). All remaining genes from the pairwise comparisons were analyzed using Gene Set Enrichment Analysis (GSEA) (46, 47) to identify pathways (based on GO terms (c5.all.v6) from the Molecular Signatures Database (MSigDB (48)) as well as custom gene sets involved in TLR1/2 versus TLR7 ligand activation. GSEA was performed by calculating a ranked vector as log2 fold-change. Analysis was performed using R 3.3.1 (49) and Bioconductor 2.32.0 (50). Venn diagrams were generated using the VennDiagram package.

[2] = system: SSX2-expressing sarcoma cells; assay: SSX2 tumor treatment study: DNA vaccine with or without TLR agonist; type: in vivo, mice; settings: for anti-tumor efficacy / tumor growth suppression in combination with DNA vaccine: TLR agonist with DNA vaccine versus vaccine alone; for effect on tumor growth of TLR agonist alone (with vector DNA): with control vector pTVG4
Description: Mice expressing human HLA-A2 were injected subcutaneously with SSX2-expressing sarcoma cells. Starting one day after inoculation, and every 7 days thereafter, mice were vaccinated with a DNA vaccine encoding SSX2, an optimized version of SSX2 with increased affinity for HLA-A2 (pTVG-SSX2 opt) or negative control vector pTVG4. All were done with or without TLR1/2 agonist or TLR7 agonist mixed with the DNA. A solution of DNA and a solution of TLR agonist in PBS were made and mixed together prior to administration. Note that TLR stimulation via a TLR agonist improves the efficacy of pTVG-SSX2 opt to a greater extent than pTVG-SSX2.
Using this model, HLA-A2-expressing transgenic mice were implanted with synovial sarcoma, X breakpoint 2 (SSX-2)-expressing tumor cells. […], mice were then immunized weekly with control vector (pTVG4), DNA encoding native SSX2 (pTVG-SSX2), or DNA encoding high affinity HLA-A2 epitopes (pTVG-SSX2 opt) in the presence or absence of Pam3CSK4 (TLR1/2) or Gardiquimod (TLR7) agonist.
SSX2 tumor treatment studies: 6- to 8-week old HHDII-DR1 mice were inoculated with 10^5 A2/Sarc-SSX2 cells administered subcutaneously, and then immunized intradermally with DNA vaccines weekly beginning one day after tumor implantation, as previously described (42). TLR agonists or vehicle were co-administered with the vaccine intradermally, and tumor volumes were measured over time using calipers, as described above.

[3] = system: OT-1 transgenic splenocytes; assay: In vitro stimulation of OT-1 splenocytes with peptide antigen in the presence of TLR agonists, surface markers by flow cytometry; type: cell-based, mice; set-up: key to 4-1BB / PD-1 / LAG3 / CD160 / CD244.2 / BTLA / VISTA: “+” means increase; “−” means decrease; “=” means no change; “=/+” or “=/−” means the change is there but not significant; “=/+” or “=/−” means the change is there but not significant; settings: for 4-1BB / BTLA / CD160 / CD244.2 / LAG3 / PD-1 / VISTA: OT-1 splenocytes, high affinity antigen plus TLR agonist, versus antigen alone; for T cell activation measured by 4-1BB / PD-1 expression on activated T cells / levels of tested checkpoint markers (BTLA, VISTA, CD160, CD244.2): in words; for T cell activation measured by 4-1BB: SIINFEKL plus TLR agonist; for PD-1 expression on activated T cells: SIINFEKL plus TLR agonist versus antigen alone, up to 4 days; for levels of tested checkpoint markers (BTLA, VISTA, CD160, CD244.2): high affinity antigen plus TLR agonist versus no TLR agonist
Description: T cell activation was measured by the levels of marker 4-1BB (a/k/a CD137, a member of the TNF receptor superfamily). The level of PD-1 expression was also assessed in these cells (FIG. 1B).
There was no difference in LAG3 expression between the control cells and cells treated with any of the assayed TLR agonists.
OT-1 transgenic splenocytes were treated with high affinity antigen in combination with Pam3CSK4 (TLR1 and 2 agonist), Gardiquimod (TLR7 agonist) or no TLR agonist and the levels of different checkpoint markers or T cell stimulation (measured by 4-1BB, FIG. 5) were assayed. The checkpoint markers BTLA (FIG. 6), VISTA (FIG. 7), CD160 (FIG. 8) and CD244.2 (FIG. 9) were assayed.
TLR stimulation at the time of T-cell activation in vitro affects expression of PD-1. Given that CpG-rich DNA is a TLR9 agonist and Lm is a TLR2 agonist, we questioned whether TLR stimulation with different ligands could similarly affect expression of different T-cell checkpoint inhibitors. […] OT-1 splenocytes were stimulated in vitro with peptides of different affinity for MHC class I (high-affinity SIINFEKL peptide (SEQ ID NO:1, OVA), moderate-affinity SIINTEKL peptide (SEQ ID NO:2, FT), or low-affinity SIINFEKP peptide (SEQ ID NO:7, LP)), alone or in the presence of different TLR ligands (TLR 1/2 (Pam3CSK4), TLR 3 (Poly I:C), TLR 4 (MPLAs), TLR 7 (Gardiquimod), TLR 7/8 (R848), or TLR 9 (ODN1826)). […] Similarly, LAG-3 expression increased by day 3, but was not affected by the presence of different TLR ligands. […] This reduction in PD-1 expression was observed most with the high-affinity SIINFEKL (SEQ ID NO:1) epitope, but also observed following activation with lower affinity epitopes. Given these findings, we evaluated expression of multiple other T-cell checkpoint molecules following T-cell activation in the presence of TLR ligands. […] Cytotoxic T-lymphocyte-associated protein 4 (CTLA-4) expression, however, was increased in the presence of TLR1/2 agonist. Similar results were found activating OT-1 cells with the lower affinity FT (SIINTEKL peptide (SEQ ID NO:2)), LP (SIINFEKP peptide (SEQ ID NO:7), or LY (SIINFEKY, SEQ ID NO:8) epitopes (FIG. 19).
In vitro T-cell stimulation: Spleens were collected from OT-1 mice, processed through a mesh screen, and splenocytes were isolated by centrifugation after red blood cell osmotic lysis with ammonium chloride/[…] lysis buffer (0.15 M NH4Cl, 10 mM KHCO3, 0.1 mM EDTA). Splenocytes were cultured at 2×10^6/mL in RPMI 1640 medium supplemented with L-glutamine, 10% fetal calf serum (FCS), 200 U/mL penicillin/streptomycin, 1% sodium pyruvate, 1% HEPES, 50 μM β-MeOH, and 2 μg/mL of the designated peptide. TLR agonists were all purchased from InvivoGen (San Diego, CA) and added one hour before peptides at the following optimal concentrations based on preliminary studies and previously reported results: 300 ng/ml Pam3CSK4, 10 μg/mL Poly(I:C) HMW, 10 μg/ml MPLAs, 3 μg/ml Gardiquimod, 10 μg/ml R848, 5 μM ODN 1826. At the time points indicated, cells were stained, fixed for 15 min at 4° C. in cytofix (BD Biosciences (BD), San Jose, CA; 554655), and frozen in FCS+10% DMSO. After all time points were collected, cells from all times were thawed, rinsed and resuspended in PBS+3% FCS+1 mM EDTA and analyzed by flow cytometry. Cells were stained for 30 min at 4° C. in a 1:4 dilution of brilliant stain buffer (BD 563794) in PBS+3% FCS+1 mM EDTA. In order to assess co-stimulation, blocking antibodies for CD80 (0.6 μg/mL), CD86 (0.25 μg/mL) or OX40L (0.6 μg/mL) were added 1 hour prior to antigen.

Row | Compound | expression of genes associated with Th1-biased cytotoxic effector function (IFNγ, TNFα, granzymes A-C, perforin, T-Bet) [1] | Eomesodermin (EOMES gene) expression [1] | expression of genes associated with T-cell regulation (including PD-1 and IL-10) [1] | anti-tumor efficacy / tumor growth suppression in combination with DNA vaccine [2] | effect on tumor growth of TLR agonist alone (with vector DNA) [2] | 4-1BB [3] | BTLA [3] | CD160 [3] | CD244.2 [3] | LAG3 [3] | PD-1 [3] | VISTA [3] | T cell activation measured by 4-1BB [3] | PD-1 expression on activated T cells [3] | levels of tested checkpoint markers (BTLA, VISTA, CD160, CD244.2) [3] | PD-1 expression on activated T cells ([3]; listed as TLR4) | CTLA-4 expression ([3]; OT-1 T cells activated with SIINFEKL in the presence of TLR ligand) | PD-1 expression on activated T cells ([3]; listed as TLR3)
1 | CCNCc1nc2c(N)nc3ccccc3c2n1CC(C)(C)O [Gardiquimod] | induced | reduced | reduced | significantly increased; also recorded: improved the tumor growth suppression | modest effects | = | =/− | − | =/− | = | − | = | activated | expressed low levels of PD-1; also recorded: significantly reduced | did not affect |  |  | 
2 | Monophosphoryl Lipid A [MPLAs] |  |  |  |  |  | = |  |  |  | = | = |  |  | did not significantly reduce |  | did not lead to PD-1 downregulation |  | 
3 | Pam3CSK4 | induced | reduced | reduced | significantly increased; also recorded: improved the tumor growth suppression | modest effects | = | =/− | − | = | = | − | − | activated | expressed low levels of PD-1; also recorded: significantly reduced | did not affect |  | increased | 
4 | Poly(I:C) [PolyI:C] |  |  |  |  |  | = |  |  |  | =/+ | =/− |  |  | did not significantly reduce |  |  |  | did not lead to decreased PD-1 expression
